This passage reports Selectivity and IC50 results from ChEMBL document CHEMBL1130373, “Dual CCK-A and -B receptor antagonists (I) C9-methyl-1,4-benzodiazepines” (Bioorg Med Chem Lett, 1997).

Assay [1] can be described thus: Selectivity for cholecystokinin A and B receptors.
For assay [2], the target named is T1, Cholecystokinin receptor type A (Rattus norvegicus, UniProt P30551).
T1 sequence (P30551 whole entry): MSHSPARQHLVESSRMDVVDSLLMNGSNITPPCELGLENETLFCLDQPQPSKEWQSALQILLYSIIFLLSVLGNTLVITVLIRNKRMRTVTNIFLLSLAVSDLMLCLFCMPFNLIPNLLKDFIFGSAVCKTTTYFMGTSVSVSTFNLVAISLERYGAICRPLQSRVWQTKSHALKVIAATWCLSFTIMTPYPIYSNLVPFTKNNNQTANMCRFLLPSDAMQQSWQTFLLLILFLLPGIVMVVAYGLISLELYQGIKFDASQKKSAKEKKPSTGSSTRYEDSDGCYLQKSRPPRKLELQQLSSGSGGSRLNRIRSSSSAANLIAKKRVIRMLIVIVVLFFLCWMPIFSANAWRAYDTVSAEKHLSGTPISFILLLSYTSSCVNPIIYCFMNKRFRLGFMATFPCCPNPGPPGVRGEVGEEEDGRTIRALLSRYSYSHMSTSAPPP
In words: Inhibition of [125I]Cholecystokinin-8 (125I-CCK-8) binding to Cholecystokinin type A receptor of rat pancreatic membranes. Format: cell membranes, Membrane.

In assay [3] the target is T1, Cholecystokinin receptor type A. In words: Inhibition of [125I]Cholecystokinin-8 binding to Cholecystokinin type A receptor of rat pancreatic membranes. The format is cell membranes, Membrane.

The compound `Cc1cccc2c1N(CC(=O)N1CC3CCC(CC3)C1)C(=O)C(NC(=O)Nc1cccc(-c3nn[nH]n3)c1)N=C2c1ccccc1F` (single isomer, unassigned; (+)) [listing 1 of 2 here] yielded a Selectivity in assay [1] of 24.
Usually IC50 stands for the concentration at which inhibition is half-maximal. Read a high IC50 as lower potency. In turn, `CC(=O)c1cccc(NC(=O)NC2N=C(c3ccccc3F)c3cccc(C)c3N(CC(=O)N3CC4CCC(CC4)C3)C2=O)c1` (configuration not stated) showed a 50% inhibitory concentration (IC50) in assay [2] of 13 nM. In addition, the Selectivity in assay [1] was 15.
The matching figures for `Cc1cccc2c1N(CC(=O)N1CC3CCC(CC3)C1)C(=O)C(NC(=O)Nc1cccc(Cl)c1)N=C2c1ccccc1F` (configuration not stated): 7.4 nM and 3.7.
The matching figures for `CSc1cccc(NC(=O)NC2N=C(c3ccccc3F)c3cccc(C)c3N(CC(=O)N3CC4CCC(CC4)C3)C2=O)c1` (configuration not stated): 21 nM and 57.
The matching figures for `Cc1cccc(NC(=O)NC2N=C(c3ccccc3F)c3cccc(C)c3N(CC(=O)N3CC4CCC(CC4)C3)C2=O)c1` (configuration not stated): 17 nM and 36.
Consider `Cc1cccc(NC(=O)NC2N=C(c3ccccc3F)c3ccccc3N(CC(=O)N3CC4CCC(CC4)C3)C2=O)c1` (configuration not stated), for which the IC50 in assay [2] was 62 nM. The compound further returned a Selectivity in assay [1] of 710.
`Cc1cccc2c1N(CC(=O)N1CC3CCC(CC3)C1)C(=O)C(NC(=O)Nc1cccc(C(=O)O)c1)N=C2c1ccccc1F` (configuration not stated) showed an IC50 in assay [2] of 160 nM. This compound came in with a Selectivity in assay [1] of 170.
Regarding `Cc1cccc2c1N(CC(=O)N1CC3CCC(CC3)C1)C(=O)C(NC(=O)Nc1cccc(Br)c1)N=C2c1ccccc1F` (configuration not stated), the IC50 in assay [2] came out at 5.1 nM. Also, the Selectivity in assay [1] worked out at 2.8.
Turning to `Cc1cccc2c1N(CC(=O)N1CC3CCC(CC3)C1)C(=O)C(NC(=O)Nc1cccc(-c3nn[nH]n3)c1)N=C2c1ccccc1F` (stereo in doubt; (-)-11) [listing 1 of 2 here], the Selectivity in assay [1] turned out to be 110.
As to `Cc1cccc2c1N(CC(=O)N1CC3CCC(CC3)C1)C(=O)C(NC(=O)Nc1cccc(-c3nn[nH]n3)c1)N=C2c1ccccc1F` (stereo in doubt; (-)-11) [listing 2 of 2 here], the half-inhibitory concentration (IC50) in assay [3] amounted to 670 nM.
In turn, `Cc1cccc2c1N(CC(=O)N1CC3CCC(CC3)C1)C(=O)C(NC(=O)Nc1cccc(-c3nn[nH]n3)c1)N=C2c1ccccc1F` (stereo in doubt; 11) [listing 1 of 2 here] showed an IC50 in assay [2] of 14 nM. That is a double-digit nanomolar value.
Turning to `Cc1cccc2c1N(CC(=O)N1CC3CCC(CC3)C1)C(=O)C(NC(=O)Nc1cccc(-c3nn[nH]n3)c1)N=C2c1ccccc1F` (stereo in doubt; 11) [listing 2 of 2 here], the Selectivity in assay [1] was 21.
The compound `COc1cccc(NC(=O)NC2N=C(c3ccccc3F)c3cccc(C)c3N(CC(=O)N3CC4CCC(CC4)C3)C2=O)c1` (configuration not stated) came in with a half-inhibitory concentration (IC50) in assay [2] of 7.3 nM. For the same compound, in assay [1], the Selectivity was found to be 7.3.
`Cc1cccc2c1N(CC(=O)N1CC3CCC(CC3)C1)C(=O)C(NC(=O)Nc1cccc(-c3nn[nH]n3)c1)N=C2c1ccccc1F` (single isomer, unassigned; (+)) [listing 2 of 2 here] came in with a half-maximal inhibitory concentration (IC50) in assay [3] of 9.2 nM.
